What is called EC50 is the midpoint of the concentration-response curve. In general, IC50 refers to the concentration needed to halve the response being measured. Low readings indicate higher potency, high ones lower potency.

Results on 73 compounds are retold here after PubChem BioAssay AID179 (DTP/NCI, 2004).

This assay concerns CEM cells HIV-1 protection, formazan growth assay. In words: NCI AIDS Antiviral Assay. The settings on record: for IC50: measured here: growth of uninfected CEM cells. In a few lines: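 Category rules: moderately active means at least 50% protection on retest, and confirmed active means 100% protection reproducibly. The underlying data came from a formazan growth assay in HIV-1-infected CEM cells.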

Values joined by “and” are separate entries in the source; they are usually repeats but may differ in a detail not shown here. Equal values may be shown once. Active and inactive are the calls of the source.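 How the source made its calls: active means compounds giving half or more protection of infected cells from virus-caused growth loss, again on retest; inactive means the rest.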 Where a SMILES comes first, the peptide text is derived from it. [ ]: non-standard residue; d: D form. The star is where a group is joined. ξ: configuration not given here. ξD = NC(CC(=O)O)C(=O)O; Boc = CC(C)(C)OC(=O)*; Aib = CC(C)(N)C(=O)O; OtBu = CC(C)(C)O*

Consider `CCCCCCCCCCCCCCCCCCOC(CO)COP(=O)(O)OCC1OC(n2cc(C)c(=O)[nH]c2=O)CC1F` (stereo not given), for which the EC50 was 0.00155 µM and the concentration for half-maximal inhibition (IC50) turned out to be 2 µM.

Take `CCOC(=O)C1=CC(C(C)CC(=O)CC(=O)O)CC1` (stereo not given): the outcome was active. On to `N#Cc1nc(C(F)(F)F)oc1N`, for which the result was inactive. For the compound `COC(=O)C1CC2c3ccccc3C1c1ccccc12` (stereo not given), the EC50 was more than 200 µM and the IC50 was more than 200 µM. As for `CCOC(=O)C1=C(OC(OCC)C(CC)[Se]c2ccccc2)CCCC1` (stereo not given), the EC50 is more than 23.4 µM and the IC50 is more than 23.4 µM. For the compound `c1ccc2c3c(ccc2c1)CSCc1ccc2ccccc2c1-3`, the EC50 is more than 200 µM.

Turning to `CCOC(=O)/C=C(/N=P(c1ccccc1)(c1ccccc1)c1ccccc1)C(F)(F)F`, the EC50 is more than 200 µM and the IC50 stood at 13.8 µM. On the same counts, the results for `CC1(C)COC(c2c(-c3ccccc3)noc2CS(=O)c2ccccc2)=N1` (stereo not given) are more than 100 µM and 42.7 µM. In the case of `CC(=O)[C@@H](C)C(=O)N1C(=O)OC[C@@]12[C@@H]1CC[C@@H](C1)C2(C)C`, the EC50 was more than 200 µM and the IC50 was more than 200 µM.

As to `COC(=O)C(C)(C)NC(=O)C(C)(C)NC(=O)C(CC(=O)OC(C)(C)C)NC(=O)OC(C)(C)C` (stereo not given) (Boc-[ξD](OtBu)-[Aib]-[Aib]-OMe), the EC50 was more than 200 µM and the IC50 was more than 200 µM. Turning to `NCCN=C(Nc1ccccc1)Nc1ccccc1`, the EC50 was more than 200 µM and the IC50 is 29.5 µM. For the compound `O=C1/C(=C/c2ccc(OC(=O)c3ccc(Cl)cc3)cc2)CCC/C1=C\c1ccc(OC(=O)c2ccc(Cl)cc2)cc1`, the EC50 is more than 100 µM and the IC50 is more than 100 µM.

As to `COc1ccc2c(c1)C1Oc3ccccc3CC1(O)CO2` (stereo not given), the EC50 is more than 200 µM and the IC50 came to 132 µM. For the compound `O=C1C2CCC(N1c1ccc(F)cc1)n1c(=O)n(-c3ccccc3)c(=O)n12` (stereo not given), the result was inactive.

As for `COc1ccc2c(c1)CC1c3c(cc4c(c3-2)OCO4)CCN1C` (stereo not given), the EC50 is more than 589 µM and the IC50 came to 3.31 µM. On the same counts, the results for `CCN(CC)CCCNc1ncc(C)c2c1c1ccc3c(O)cccc3c1n2C` are more than 13.2 µM and 0.24 µM.

In the case of `Clc1nc(Cl)nc(N2CCCc3ccccc32)n1`, the EC50 was more than 200 µM and the IC50 amounted to 3.89 µM. On the same counts, the results for `C=CCn1c(-c2ccccc2)cs/c1=N\C(P(=O)(O)O)P(=O)(O)O` are more than 200 µM and more than 200 µM. With `Cc1cc(Cl)ccc1NC(=O)C1C(=O)C(=O)N(c2ccc(Cl)cc2C)C1=O` (stereo not given), the outcome was inactive. Turning to `O=C(O)CCC(NC(=O)/C(=C/c1ccccc1)NC(=O)c1ccccc1)C(=O)O` (stereo not given), the EC50 was more than 200 µM and the IC50 is more than 200 µM. In the case of `CC(=O)C1(O)Cc2c(O)c3c(c(O)c2C(OC2CC(N)C(O)C(C)O2)C1)C(=O)c1ccccc1C3=O` (stereo not given), the EC50 is more than 339 µM and the IC50 was found to be 0.107 µM.

Regarding `CCCCOC1NC(=O)NC(=O)C1(F)C(=O)OCC` (stereo not given), the EC50 is more than 200 µM and the IC50 is 6.61 µM. Turning to `O=C(O)C1C=CC(c2ccc(Cl)cc2)=N1` (stereo not given), the EC50 is more than 200 µM and the IC50 is more than 200 µM.

For `CC(C)OP(=O)(CN(C)/C(F)=N\C(F)(F)F)OC(C)C`, the EC50 was more than 200 µM and the IC50 was more than 200 µM.

Take `CC1(C)OC2C(=O)C=C(COCc3ccccc3)C2O1` (stereo not given): the EC50 was more than 200 µM; the IC50 is 28.2 µM and 10 µM. With `C=CCN1C(=O)C/C(=C2/CCC(=O)N2CC=C)C1=O`, the EC50 was more than 955 µM and the IC50 is more than 955 µM. As to `O=C(CC(O)(C(F)(F)F)C(F)(F)F)C(CCCl)C(O)(C(F)(F)F)C(F)(F)F` (stereo not given), the EC50 was more than 200 µM and the IC50 amounted to 33.1 µM.

With `O=C1C2C=CC(n3[nH]c(=O)n(Cc4ccccc4)c3=O)CC2C(=O)N1c1cccc(Cl)c1` (stereo not given), the EC50 was more than 398 µM and the IC50 was more than 398 µM. As to `Cc1nnc2c([N+](=O)[O-])c(N)c(Cl)nn12`, the EC50 is more than 200 µM and the IC50 was 1.29 µM.

In the case of `O=C1NC2=C(CCCCC/C2=N\O)C12CCCCCC2`, the result was inactive.

As to `COC1C(C)OC(OC2CC(C)(O)C(C(=O)O)c3cc4c(c(O)c32)C(=O)c2c(O)cc3c(c2C4=O)OC2OC3(C)C(O)C(N(C)C)C2O)C(OC)C1(C)OC` (stereo not given), the result was inactive.

With `Cc1cc(C)nc(NS(=O)(=O)c2ccc(NNc3c4ccccc4nc4c(C(=O)Nc5ccc(S(N)(=O)=O)cc5)cccc34)cc2)n1`, the EC50 was more than 200 µM and the IC50 was determined as 11 µM.

With `CCOC(=O)c1cnc2c(ccc3ncccc32)c1Cl`, the EC50 was more than 66.1 µM and the IC50 stood at 34.7 µM. With `N#C/C(=C\c1cccc(C#N)c1)c1ccccc1`, the EC50 is more than 31.6 µM and the IC50 was more than 31.6 µM. For the compound `COc1cc2cc(c1Cl)N(C)C(=O)C[C@H](OC(=O)[C@H](C)N(C)C(C)=O)[C@]1(C)O[C@H]1[C@H](C)[C@@H]1C[C@@](O)(NC(=O)O1)[C@H](OC)C=C/C=C(\C)C2`, the outcome was inactive. For the compound `Cc1ccc(S(=O)(=O)OC2C3C=CC2C2CSCC32)cc1` (stereo not given), the EC50 was more than 100 µM and the IC50 was more than 100 µM.

In the case of `CC(C)(C)OC(=O)N(CC1OC(n2cnc3c(N)ncnc32)C2OC(C)(C)OC12)OC(=O)C(C)(C)C` (stereo not given), the EC50 was more than 200 µM and the IC50 was more than 200 µM.

Regarding `O=C(NCCCCNCCCNC(=O)c1ccccc1)c1ccccc1`, the EC50 is more than 200 µM and the IC50 is more than 200 µM. Regarding `Cc1ccc2nc(Nc3ccccc3C)c(Nc3ccccc3C)nc2c1`, the result was inactive. Consider `COc1ccc2c(c1OC)C1N(C)CCc3cc4c(cc3C1(OC)C2=O)OCO4` (stereo not given), for which the outcome was inactive. For the compound `COc1ccccc1NC(=O)CC(=O)N1N=C(N2c3ccccc3Sc3ccccc32)CC1c1ccccc1` (stereo not given), the EC50 is more than 200 µM and the IC50 is more than 200 µM.

As to `CCCC(=O)c1c(NOC2OCC(OC(C)=O)C(OC(C)=O)C2OC(C)=O)nc(OC)n(C)c1=O` (stereo not given), the EC50 is more than 14.5 µM and the IC50 was more than 14.5 µM. `CNC(=O)c1n[nH][nH]c1=O`: the EC50 is more than 200 µM and the IC50 was more than 200 µM. For the compound `Clc1ccc(C2=Nc3ccccc3SC(c3ccc(Cl)c(Cl)c3)C2)c(Cl)c1` (stereo not given), the EC50 was more than 15.8 µM and the IC50 is more than 15.8 µM. As to `COC1=C(C2=NC(C)(C)CO2)c2ccccc2C(C/C=C/[Si](C)(C)C)C1` (stereo not given), the EC50 was more than 26.9 µM and the IC50 was more than 26.9 µM. On to `CCC[CH2][Sn]([CH2]CCC)([O]C(=O)c1cc(OC)c(OC)cc1OC)[O][Sn]([CH2]CCC)([CH2]CCC)[O]C(=O)c1cc(OC)c(OC)cc1OC`, for which the EC50 was more than 11 µM and the 50% inhibitory concentration (IC50) is 0.302 µM. As to `CN(C)c1ccc(/C=C(\C#N)c2ccccc2Br)cc1`, the EC50 was more than 40.7 µM and the IC50 came to 3.98 µM. `CC(=O)OC1CCC2OOC1O2` (stereo not given): the outcome was inactive. Take `Cc1nc(C(N)=S)sc1C(=O)C/C(=N/N)C(=O)Nc1cccc(Cl)c1C`: the EC50 was more than 166 µM and the IC50 was more than 166 µM. As to `O=C(O)Cc1c(-c2ccc([N+](=O)[O-])cc2)c(=O)oc2cc(O)ccc12`, the EC50 was more than 200 µM and the IC50 turned out to be 21.4 µM. Regarding `Cc1cc(=O)n2nc(CSc3nnc(N)s3)sc2n1`, the EC50 was more than 200 µM and the IC50 is more than 200 µM. As to `Nc1ccc(/C=C/c2ccnc3ccccc23)c(N)c1`, the EC50 was 0.0631 µM and the IC50 came out at 79.4 µM. On the same counts, the results for `O=C1CCCC/C1=C\c1ccc(Br)cc1` are more than 200 µM and 10.7 µM. On the same counts, the results for `CC1C2CCC3C4CC=C5CC(N(C)C)CCC5(C)C4CCC32CN1C` (stereo not given) are more than 200 µM and 41.7 µM. With `COc1ccc(N(C(=O)Nc2ccc(Cl)c(Cl)c2)c2ccccc2)cc1`, the EC50 was more than 200 µM and the IC50 amounted to 126 µM.

Regarding `Cc1ccc(N2C(=O)/C(=C\c3ccc(N(CCC#N)CCC#N)cc3)N=C2COc2ccccc2)cc1`, the EC50 was more than 38 µM and the IC50 was more than 38 µM. For the compound `CN(C)CCN1C(=O)CN=C(c2ccccc2Cl)c2cc(Cl)ccc21`, the EC50 is more than 200 µM and the IC50 was found to be 117 µM.

`CCOC(=O)C(=CCC1NCCc2c1[nH]c1ccccc21)C(=O)OCC` (stereo not given): the EC50 is more than 20.4 µM and the IC50 was 12 µM. On the same counts, the results for `CCOC(=O)/C(=C\c1cc(OC)ccc1OC)P(=O)(OCC)OCC` are more than 676 µM and 9.77 µM. `N=C(N)N1CCC(N2CCOCC2)CC1`: the EC50 is more than 200 µM and the IC50 was more than 200 µM. For the compound `O=S1(=O)OC(c2ccc(O)cc2)(c2ccc(O)cc2)c2ccccc21`, the outcome was inactive. In the case of `C[C@]12CC[C@H](OS(=O)(=O)O)CC1CCC1C2CC[C@@]2(C)C1CC[C@@H]2CO` (stereo not given in full), the EC50 was more than 60.3 µM and the IC50 is more than 60.3 µM.

Consider `COc1ccc(Cc2c[n+](C)cc3cc(N=O)c(OC)cc23)cc1O`, for which the EC50 is more than 200 µM and the IC50 was more than 200 µM. For the compound `c1ccc(-c2cc(-c3ccccc3)nc(-c3ccncc3)c2)cc1`, the EC50 is more than 200 µM and the IC50 was more than 200 µM.

Regarding `CCN(CC)P1(=O)C=C(C)C2C1C1C=C(C)C2P1(=O)N(CC)CC` (stereo not given), the outcome was inactive. With `O=c1c(SCc2ccccc2)c(N2CCCCC2)cnn1-c1ccccc1`, the EC50 is more than 69.2 µM and the IC50 is more than 69.2 µM.

Consider `CN1C(=Nc2ccccc2)SC1=Nc1ccccc1`, for which the outcome was inactive. In the case of `COC(CNC(=O)C(C)NC(=O)CCc1ccccc1)OC` (stereo not given), the outcome was inactive. On to `CC(=O)N1C(OC(C)C)CC(C)N1c1ccccc1` (stereo not given), for which the EC50 was more than 200 µM and the IC50 is more than 200 µM.

With `C#C[C@H]1CCCCCC1O` (stereo not given in full), the EC50 is more than 1820 µM and the IC50 was 1230 µM. For `C#CC(O)CS(=O)(=O)c1ccccc1` (stereo not given), the EC50 was more than 100 µM and the IC50 was more than 100 µM.

Regarding `CCOC(=O)N/N=C(/N)c1cccc([N+](=O)[O-])c1`, the EC50 was more than 200 µM and the IC50 is more than 200 µM. Consider `O=c1[nH][nH]c(=O)c2[nH]cnc12`, for which the result was inactive.
